Values after ≈ are worked out from the molar mass of the structure shown. Like-named read-outs stand apart in the source and are kept apart here. Each block holds one compound with its values, some of them ahead of it.
Columns and labels:
[1] = Dynamic vapor sorption (DVS) / moisture absorption; format: physicochemical
Procedure: (4) Dynamic Water Adsorption (DVS), TA Instruments Q5000 TGA; controlling software: Thermal Advantage; analysis software: Universal Analysis; sample plate: platinum crucible; amount of the sample to be detected: 1-10 mg; protective gas: nitrogen; gas flow fate: 10 mL/min; detection method: equilibration at 25° C., humidity: 0%, isothermal treatment: 90 min, weight change to be detected: from 0% RH to 80% RH;
(§1) The moisture content, solubility and dissolution rate of the crystalline forms 1 and 2 were detected using the methods described above. The results are shown in Table 21, which indicate that the solubility, dissolution, and moisture content (total pharmaceutical properties) of the crystalline form 1 are higher than that of the crystalline form 2. Moreover, the crystalline forms 1 and 2 have the highest solubility in methanol.

[2] = Dissolution rate of crystalline forms 1 and 2; format: physicochemical
Source text: as §1

[3] = Stability of the crystalline forms (HPLC, XRD, DSC); format: physicochemical; conditions: for HPLC Maximum single impurity %: retention time (min) in brackets; for crystalline form and melting point by XRD and DSC: sealed 80° C. 24 hours, open dish 25° C./60% RH and 40° C./75% RH for 7 days
Procedure: Experimental conditions: the samples were sealed and placed at 80° C. for 24 hours, and then placed in an open dish at 25° C./60% RH (relative humidity) and 40° C./75% RH for 7 days. Detection method: HPLC (only for the starting samples and samples placed at 80° C. for 24 hours), XRD, DSC.
In addition, the long-term stabilities of the crystalline form 1 for 12 months, 24 months, 36 months, and 48 months at 25° C./60% RH were also investigated.

[4] = Thermodynamic stability experiment in solvents at 60° C. (XRD); format: physicochemical; conditions: one day
Procedure: The crystalline form 1, crystalline form 2, crystalline form 3 and crystalline form 7 of the compound of formula I were mixed with acetone, ethyl acetate, methanol, water and tetrahydrofuran respectively, and then kept at 60° C. for one day for the investigation of the thermodynamic stability of each crystalline form. Insoluble solid was recovered by filtration and analyzed by XRD. Analysis conditions: Shimadzu XRD-6000, CuK source (1.54056 A) 40 kV, 30 mA; detection angle: 5-50°, speed: 5°/min.

[5] = Pharmacokinetic experiment, oral administration; format: in vivo, Sprague Dawley rats; conditions: rat, 10 mg/kg, suspension in 0.5% CMC
Procedure: Twelve Sprague Dawley rats with weight of 230-250 g were randomly divided into 2 groups, wherein each group consisted of 3 males and 3 females. Crystalline forms 1 and 2 were separately prepared as suspensions in 0.5% carboxymethylcellulose (CMC). The rats were fasted for 12 hours with free access to water and then orally administered at a dose of 10 mg/kg. Blood samples (0.2-0.3 ml) before and after 15, 30, 60, 120, 240, 360, 480, 720, 1440 minutes of the oral administration were collected in heparin anticoagulation tubes, which were then centrifuged to obtain plasma. The plasma was stored at −20° C., followed by analysis using API 4000 MS in conjunction with a HPLC unit. The pharmacokinetic parameters Cmax and AUC were calculated according to the determined plasma concentrations and summarized in Table 22.

[6] = Solubility of crystalline forms 1 and 2 in various media; format: physicochemical
Source text: as §1

[7] = Solubility determination in water by HPLC; format: physicochemical; conditions: suspension in water, 25° C.
Procedure: HPLC detection was performed using the crystalline form 1 as a standard, with its concentration of 204.2 μg*mL^−1 and its content set as 100%, and the detection was performed 7 times. The average peak area was 159.691 mAU*min (retention time was 7.4 min).

[8] = Tissue accumulation experiment in tumor-bearing mice; format: in vivo, BALB/cA nude mice; parameters: content in Tumor / content in Liver / content in Kidney / content in Heart / content in Lung / content in Muscle / content in Brain: unit not given here; conditions: 40 mg/kg for 21 days (crystalline form 1 twice a day, sunitinib once a day); 4 hours after administration on day 22
Procedure: Human colon cancer H-29 cells were implanted into the armpits of BALB/cA nude mice. Seven days after the implantation of H-29 cells, 8 female mice were administered with the crystalline form 1 (twice a day) at 40 mg/kg or sunitinib at 40 mg/kg (once a day). The drug administration was continuous for 21 days. Plasma, tissue and tumor samples were collected for analysis 4 hours after the administration on the 22nd day morning.

[9] = acetone, ethyl acetate, methanol or water, conversion not complete in methanol

Moisture absorption ([1]; RH 50%): 0.064%
Moisture absorption ([1]; RH 80%): 0.112%
Internal dissolution rate [2]: 0.0062 mg/(min · cm^2)
HPLC Purity % ([3]; 0 day (starting sample)): 97.76%
HPLC Maximum single impurity % ([3]; 0 day (starting sample)): 2.15 (4.73) %
crystalline form and melting point by XRD and DSC [3]: substantially unchanged
HPLC Purity % ([3]; sealed, 80° C./24 h): 98.95%
HPLC Maximum single impurity % ([3]; sealed, 80° C./24 h): 0.96 (4.73) %
crystalline form recovered (XRD) [4, 9]: converted to crystalline form 2
crystalline form recovered (XRD) ([4]; tetrahydrofuran (THF)): to crystalline form 3
AUC(0-t) ([5]; female, Sprague Dawley, plasma, po, female 1, read-out: AUC(0-t)): 4340 ng·h/mL
Cmax ([5]; female, Sprague Dawley, plasma, po, female 1, read-out: Cmax): 317 ng/mL
AUC(0-t) ([5]; oral 10 mg/kg, average value): 3320.9 ng·h/mL
Cmax ([5]; oral 10 mg/kg, average value): 313.8 ng/mL
AUC(0-t) ([5]; oral 10 mg/kg, female 2): 3899.2 ng·h/mL
Cmax ([5]; oral 10 mg/kg, female 2): 451.4 ng/mL
AUC(0-t) ([5]; oral 10 mg/kg, female 3): 7850.6 ng·h/mL
Cmax ([5]; oral 10 mg/kg, female 3): 614.6 ng/mL
AUC(0-t) ([5]; oral 10 mg/kg, male 1): 1557.1 ng·h/mL
Cmax ([5]; oral 10 mg/kg, male 1): 204.4 ng/mL
AUC(0-t) ([5]; oral 10 mg/kg, male 2): 925.0 ng·h/mL
Cmax ([5]; oral 10 mg/kg, male 2): 114.7 ng/mL
AUC(0-t) ([5]; oral 10 mg/kg, male 3): 1349.3 ng·h/mL
Cmax ([5]; oral 10 mg/kg, male 3): 180.4 ng/mL
Solubility ([6]; 1% Tween 80): 20 µg/mL (≈ 45.5 µM)
Solubility ([6]; 1% sodium lauryl sulfate): 580 µg/mL (≈ 1320 µM)
Solubility ([6]; 2% sodium lauryl sulfate): 950 µg/mL (≈ 2160 µM)
Solubility ([6]; PEG 400, organic solvent or mixture, thermodynamic from solid, PEG 400, read-out: Solubility): 2670 µg/mL (≈ 6080 µM)
Solubility ([6]; acetonitrile): 270 µg/mL (≈ 614 µM)
Solubility ([6]; aqueous solution with pH of 1.0-7.5): 0.0048 to 0.04 µg/mL
Solubility ([6]; ethanol, organic solvent or mixture, thermodynamic from solid, ethanol, read-out: Solubility): 1940 µg/mL (≈ 4410 µM)
Solubility ([6]; glycerin): 120 µg/mL (≈ 273 µM)
Solubility ([6]; methanol): 3500 µg/mL (≈ 7960 µM)
concentration (solubility in water) ([7]; 0.5 hours): 0.19 µg/mL
concentration (solubility in water) ([7]; 4 hours): 0.26 µg/mL
Structure (SMILES): Cc1[nH]c(/C=C2\C(=O)Nc3ccc(F)cc32)c(C)c1C(=O)N[C@H]1CCN(C(=O)N(C)C)C1 [crystalline form 2, 5-[5-fluoro-2-oxo-1,2-dihydro-indole-(3Z)-ylidenemethyl]-2,4-dimethyl-1H-pyrrole-3-carboxylic acid ((S)-1-dimethylcarbamoyl-pyrrolidin-3-yl)-amide]

HPLC Purity % ([3]; 0 day (starting sample)): 99.09%
HPLC Maximum single impurity % ([3]; 0 day (starting sample)): 0.80 (4.73) %
crystalline form and melting point by XRD and DSC [3]: substantially unchanged
HPLC Purity % ([3]; sealed, 80° C./24 h): 99.12%
HPLC Maximum single impurity % ([3]; sealed, 80° C./24 h): 0.78 (4.73) %
concentration (solubility in water) ([7]; 0.5 hours): 0.29 µg/mL
concentration (solubility in water) ([7]; 4 hours): 0.37 µg/mL
Structure (SMILES): Cc1[nH]c(/C=C2\C(=O)Nc3ccc(F)cc32)c(C)c1C(=O)N[C@H]1CCN(C(=O)N(C)C)C1 [crystalline form 6, 5-[5-fluoro-2-oxo-1,2-dihydro-indole-(3Z)-ylidenemethyl]-2,4-dimethyl-1H-pyrrole-3-carboxylic acid ((S)-1-dimethylcarbamoyl-pyrrolidin-3-yl)-amide]

HPLC Purity % ([3]; 0 day (starting sample)): 99.14%
HPLC Maximum single impurity % ([3]; 0 day (starting sample)): 0.76 (4.73) %
crystalline form and melting point by XRD and DSC [3]: substantially unchanged
HPLC Purity % ([3]; sealed, 80° C./24 h): 98.32%
HPLC Maximum single impurity % ([3]; sealed, 80° C./24 h): 1.58 (4.73) %
crystalline form recovered (XRD) [4, 9]: converted to crystalline form 2
crystalline form recovered (XRD) ([4]; tetrahydrofuran (THF)): to crystalline form 3
concentration (solubility in water) ([7]; 0.5 hours): 0.58 µg/mL
concentration (solubility in water) ([7]; 4 hours): 0.77 µg/mL
Structure (SMILES): Cc1[nH]c(/C=C2\C(=O)Nc3ccc(F)cc32)c(C)c1C(=O)N[C@H]1CCN(C(=O)N(C)C)C1 [crystalline form 3, 5-[5-fluoro-2-oxo-1,2-dihydro-indole-(3Z)-ylidenemethyl]-2,4-dimethyl-1H-pyrrole-3-carboxylic acid ((S)-1-dimethylcarbamoyl-pyrrolidin-3-yl)-amide]

HPLC Purity % ([3]; 0 day (starting sample)): 99.86%
HPLC Maximum single impurity % ([3]; 0 day (starting sample)): 0.05 (8.82) %
crystalline form and melting point by XRD and DSC [3]: substantially unchanged
HPLC Purity % ([3]; sealed, 80° C./24 h): 98.80%
HPLC Maximum single impurity % ([3]; sealed, 80° C./24 h): 1.10 (4.73) %
concentration (solubility in water) ([7]; 0.5 hours): 1.66 µg/mL
concentration (solubility in water) ([7]; 4 hours): 0.42 µg/mL
Structure (SMILES): Cc1[nH]c(/C=C2\C(=O)Nc3ccc(F)cc32)c(C)c1C(=O)N[C@H]1CCN(C(=O)N(C)C)C1 [crystalline form 5, 5-[5-fluoro-2-oxo-1,2-dihydro-indole-(3Z)-ylidenemethyl]-2,4-dimethyl-1H-pyrrole-3-carboxylic acid ((S)-1-dimethylcarbamoyl-pyrrolidin-3-yl)-amide]

content in Brain [8]: 333.9
content in Heart [8]: 3,881.2
content in Kidney [8]: 14,852.0
content in Liver [8]: 14,816.6
content in Lung [8]: 15,713.5
content in Muscle [8]: 1,483.2
content in Plasma [8]: 261.3
content in Tumor [8]: 27,137.2
Structure (SMILES): CCN(CC)CCNC(=O)c1c(C)[nH]c(/C=C2\C(=O)Nc3ccc(F)cc32)c1C [Sunitinib, reference compound]

HPLC Purity % ([3]; 0 day (starting sample)): 99.28%
HPLC Maximum single impurity % ([3]; 0 day (starting sample)): 0.58 (4.73) %
crystalline form and melting point by XRD and DSC [3]: substantially unchanged
HPLC Purity % ([3]; sealed, 80° C./24 h): 98.70%
HPLC Maximum single impurity % ([3]; sealed, 80° C./24 h): 1.19 (4.73) %
crystalline form recovered (XRD) [4, 9]: converted to crystalline form 2
crystalline form recovered (XRD) ([4]; tetrahydrofuran (THF)): to crystalline form 3
concentration (solubility in water) ([7]; 0.5 hours): 0.52 µg/mL
concentration (solubility in water) ([7]; 4 hours): 0.61 µg/mL
Structure (SMILES): Cc1[nH]c(/C=C2\C(=O)Nc3ccc(F)cc32)c(C)c1C(=O)N[C@H]1CCN(C(=O)N(C)C)C1 [crystalline form 7, 5-[5-fluoro-2-oxo-1,2-dihydro-indole-(3Z)-ylidenemethyl]-2,4-dimethyl-1H-pyrrole-3-carboxylic acid ((S)-1-dimethylcarbamoyl-pyrrolidin-3-yl)-amide]

Reference: patent publication US12209080B2, “Polymorphic forms of kinase inhibitor compound, pharmaceutical composition containing same, preparation method therefor and use thereof” (EQUINOX SCIENCES, LLC, priority 2016, dated 2025)
